Numbers after ± are expanded uncertainties.
Experiment: xn = mol fraction of the nth substance listed
Settings: 101 kPa, Liquid; for speed of sound: Single path-length method

SMILES: COC(C)(C)C [2-methoxy-2-methylpropane] + Cc1ccccc1
- mass density (305.65 K, x1 = 0.053): 848.195 ± 0.42 kg/m3
- mass density (305.65 K, x1 = 0.116): 840.022 ± 0.43 kg/m3
- mass density (305.65 K, x1 = 0.199): 829.282 ± 0.45 kg/m3
- mass density (305.65 K, x1 = 0.301): 816.062 ± 0.47 kg/m3
- mass density (305.65 K, x1 = 0.371): 807.159 ± 0.48 kg/m3
- mass density (305.65 K, x1 = 0.463): 795.249 ± 0.49 kg/m3
- mass density (305.65 K, x1 = 0.61): 776.592 ± 0.52 kg/m3
- mass density (305.65 K, x1 = 0.688): 766.747 ± 0.54 kg/m3
- mass density (305.65 K, x1 = 0.797): 752.961 ± 0.56 kg/m3
- mass density (305.65 K, x1 = 0.902): 739.7 ± 0.57 kg/m3
- mass density (305.65 K, x1 = 0.943): 734.343 ± 0.58 kg/m3
- mass density (305.65 K, x1 = 1): 726.444 ± 0.58 kg/m3
- speed of sound (308.15 K, x1 = 0.053): 1245.8 ± 2.1 m/s
- speed of sound (308.15 K, x1 = 0.116): 1228.3 ± 2.1 m/s
- speed of sound (308.15 K, x1 = 0.199): 1207.5 ± 2.1 m/s
- speed of sound (308.15 K, x1 = 0.301): 1180.9 ± 2.1 m/s
- speed of sound (308.15 K, x1 = 0.371): 1161.8 ± 2.1 m/s
- speed of sound (308.15 K, x1 = 0.463): 1137.8 ± 2.1 m/s
- speed of sound (308.15 K, x1 = 0.61): 1098.8 ± 2.1 m/s
- speed of sound (308.15 K, x1 = 0.688): 1077.9 ± 2.1 m/s
- speed of sound (308.15 K, x1 = 0.797): 1049 ± 2.1 m/s
- speed of sound (308.15 K, x1 = 0.902): 1020.4 ± 2.1 m/s
- speed of sound (308.15 K, x1 = 0.943): 1008 ± 2.1 m/s
- speed of sound (308.15 K, x1 = 1): 990.99 ± 2.1 m/s
- mass density (308.15 K, x1 = 0.053): 845.842 ± 0.42 kg/m3
- mass density (308.15 K, x1 = 0.116): 837.654 ± 0.43 kg/m3
- mass density (308.15 K, x1 = 0.199): 826.891 ± 0.45 kg/m3
- mass density (308.15 K, x1 = 0.301): 813.64 ± 0.47 kg/m3
- mass density (308.15 K, x1 = 0.371): 804.72 ± 0.48 kg/m3
- mass density (308.15 K, x1 = 0.463): 792.78 ± 0.5 kg/m3
- mass density (308.15 K, x1 = 0.61): 774.07 ± 0.52 kg/m3
- mass density (308.15 K, x1 = 0.688): 764.201 ± 0.54 kg/m3
- mass density (308.15 K, x1 = 0.797): 750.369 ± 0.56 kg/m3
- mass density (308.15 K, x1 = 0.902): 737.069 ± 0.58 kg/m3
- mass density (308.15 K, x1 = 0.943): 731.692 ± 0.59 kg/m3
- mass density (308.15 K, x1 = 1): 723.763 ± 0.58 kg/m3
- speed of sound (310.65 K, x1 = 0.053): 1235.2 ± 2.1 m/s
- speed of sound (310.65 K, x1 = 0.116): 1217.6 ± 2.1 m/s
- speed of sound (310.65 K, x1 = 0.199): 1196.7 ± 2.1 m/s
- speed of sound (310.65 K, x1 = 0.301): 1170.1 ± 2.1 m/s
- speed of sound (310.65 K, x1 = 0.371): 1150.9 ± 2.1 m/s
- speed of sound (310.65 K, x1 = 0.463): 1126.8 ± 2.1 m/s
- speed of sound (310.65 K, x1 = 0.61): 1087.7 ± 2.1 m/s
- speed of sound (310.65 K, x1 = 0.688): 1066.9 ± 2.1 m/s
- speed of sound (310.65 K, x1 = 0.797): 1037.9 ± 2.1 m/s
- speed of sound (310.65 K, x1 = 0.902): 1009.1 ± 2.1 m/s
- speed of sound (310.65 K, x1 = 0.943): 996.73 ± 2.1 m/s
- speed of sound (310.65 K, x1 = 1): 979.62 ± 2.1 m/s
- mass density (310.65 K, x1 = 0.053): 843.486 ± 0.43 kg/m3
- mass density (310.65 K, x1 = 0.116): 835.279 ± 0.44 kg/m3
- mass density (310.65 K, x1 = 0.199): 824.494 ± 0.45 kg/m3
- mass density (310.65 K, x1 = 0.301): 811.214 ± 0.47 kg/m3
- mass density (310.65 K, x1 = 0.371): 802.273 ± 0.48 kg/m3
- mass density (310.65 K, x1 = 0.463): 790.303 ± 0.5 kg/m3
- mass density (310.65 K, x1 = 0.61): 771.541 ± 0.53 kg/m3
- mass density (310.65 K, x1 = 0.688): 761.642 ± 0.54 kg/m3
- mass density (310.65 K, x1 = 0.797): 747.769 ± 0.56 kg/m3
- mass density (310.65 K, x1 = 0.902): 734.423 ± 0.58 kg/m3
- mass density (310.65 K, x1 = 0.943): 729.029 ± 0.59 kg/m3
- mass density (310.65 K, x1 = 1): 721.069 ± 0.59 kg/m3
- speed of sound (313.15 K, x1 = 0.053): 1224.5 ± 2.1 m/s
- speed of sound (313.15 K, x1 = 0.116): 1207 ± 2.1 m/s
- speed of sound (313.15 K, x1 = 0.199): 1186 ± 2.1 m/s
- speed of sound (313.15 K, x1 = 0.301): 1159.3 ± 2.1 m/s
- speed of sound (313.15 K, x1 = 0.371): 1140.1 ± 2.1 m/s
- speed of sound (313.15 K, x1 = 0.463): 1115.9 ± 2.1 m/s
- speed of sound (313.15 K, x1 = 0.61): 1076.7 ± 2.1 m/s
- speed of sound (313.15 K, x1 = 0.688): 1055.9 ± 2.1 m/s
- speed of sound (313.15 K, x1 = 0.797): 1026.8 ± 2.1 m/s
- speed of sound (313.15 K, x1 = 0.902): 997.95 ± 2.1 m/s
- speed of sound (313.15 K, x1 = 0.943): 985.49 ± 2.1 m/s
- speed of sound (313.15 K, x1 = 1): 968.16 ± 2.1 m/s
- mass density (313.15 K, x1 = 0.053): 841.124 ± 0.43 kg/m3
- mass density (313.15 K, x1 = 0.116): 832.902 ± 0.44 kg/m3
- mass density (313.15 K, x1 = 0.199): 822.092 ± 0.46 kg/m3
- mass density (313.15 K, x1 = 0.301): 808.78 ± 0.47 kg/m3
- mass density (313.15 K, x1 = 0.371): 799.819 ± 0.49 kg/m3
- mass density (313.15 K, x1 = 0.463): 787.815 ± 0.51 kg/m3
- mass density (313.15 K, x1 = 0.61): 769.004 ± 0.53 kg/m3
- mass density (313.15 K, x1 = 0.688): 759.075 ± 0.55 kg/m3
- mass density (313.15 K, x1 = 0.797): 745.157 ± 0.57 kg/m3
- mass density (313.15 K, x1 = 0.902): 731.765 ± 0.59 kg/m3
- mass density (313.15 K, x1 = 0.943): 726.353 ± 0.6 kg/m3
- mass density (313.15 K, x1 = 1): 718.357 ± 0.59 kg/m3
- speed of sound (315.65 K, x1 = 0.053): 1214 ± 2.1 m/s
- speed of sound (315.65 K, x1 = 0.116): 1196.4 ± 2.1 m/s
- speed of sound (315.65 K, x1 = 0.199): 1175.3 ± 2.1 m/s
- speed of sound (315.65 K, x1 = 0.301): 1148.5 ± 2.1 m/s
- speed of sound (315.65 K, x1 = 0.371): 1129.3 ± 2.1 m/s
- speed of sound (315.65 K, x1 = 0.463): 1105 ± 2.1 m/s

— the NIST ThermoML archive (doi:10.1007/s10765-007-0223-x)
